Experimental data taken from patent publication US20250099491A1, “PREVENTION OR TREATMENT OF CARDIOVASCULAR DISEASES WITH HIGH PENETRATION PRODRUGS OF ASPIRIN AND OTHER NSAIDS” (Techfields Inc., priority 2022, published 2025).

Experiments:
[1] = tested on: middle cerebral artery (MCA) thrombosis model of monkeys; assay: Example 19: middle cerebral artery (MCA) thrombosis model of monkeys; details: for infarct volume: Day 28 after MCA thrombosis
Method: Aspirin was administered orally by gavage using a nasal catheter with a disposal syringe. The catheter was inserted into the stomach through the mouth. The treatment was once per day of MCA thrombosis (day 0), twice per day for 27 days.
The monkeys that had been fastened for at least 12 h were anesthetized with intramuscular administration of ketamine hydrochloride (20 mg/kg), and placed on an operation-bed. Anesthesia was continued with 1.0% isoflurane in O2 gas until 30 min. The inhalation anesthesia was performed with anesthesia machines (SN23402, Hallowell engineering and manufacturing corporation, USA) and respirators (SN23402, Hallowell engineering and manufacturing corporation, USA), and placed on an operation-bed. During anesthesia, body temperature of the animals (rectal temperature) was controlled between 37.0±0.5° C. by heating mattresses (XMTA-7000, Delixi Electric., Ltd.).
Under anesthesia, the left eye was enucleated using a bipolar coagulation device (Valleylab Force 1C, USA). A craniotomy was then performed supralaterally to the left side of the optic nerve. The next day animals were anesthetized with ketamine hydrochloride (20 mg/kg) and the dura and subarachnoid membrane were opened. MCA thrombosis was induced by photochemical reaction. The proximal part of the main MCA trunk. was irradiated with green light wave length 532 nm achieved by use of a xenon lamp (GL532T3-100FC, Shanghai Laser& Optics Century Col., Ltd.). The irradiation was directed by a 3-mm diameteroptic fiber mounted on a micromanipulator. Irradiation was started and rose bengal 20 mg/kg was injected intravenously. Photoirradiation was continued for a 30 min. The dura was then covered with a moist gelatin sponge.
Neurological deficits (see Table 3) were assessed 1, 3, 5, 7, 14 and 28 days after the onset of MCA thrombosis (day 0) in a blind manner. The neurological deficits was scored on consciousness, sensory system, motor system and skeletal muscle coordination, and the total neurological deficit score was calculated by summing the scores of consciousness, sensory system, motor system and skeletal muscle coordination.
The survival monkeys were deeply anesthetized with pentobarbital sodium (35 mg/kg, i.v.) 28 days after the onset of MCA thrombosis. After cutting the atriums of heart, 200 mL of heparinized physiological saline (10 U/mL) was allowed to perfuse the brain via the common carotid arteries, and followed by perfusion of 200 mL of 10% formalin neutral buffer solution. The whole brain was removed, and then was put in pathology sample preservation packs containing 10% formalin neutral buffer solution. For each brain sample, the coronal sections (thickness: 7-8 μm) per site were prepared at 10 sites at 4-mm intervals. Slices per site were each stained with H & E reagent.
Measurement of cerebral infarct lesions was carried out in a blind manner. The infarct lesions in the ischemic side are defined as a necrotic portion compared with that in the contralateral side. The infarcted area of left cerebral hemisphere (A) in the cross-sections was traced and measured using a computerized image analysis system (image J).
When the infarct size of 2 serial section was made into D and D′, the infarcted volume using the thickness (4 mm) of a section is measured in the following formula:
Total infarcted volume is calculated by summing the infarcted volume of the 10 serial sections.

[2] = tested on: rats with acute ischemia induced by Middle Cerebral Artery Occlusion (MCAO); assay: Example 14: acute ischemia induced by middle cerebral artery occlusion (MCAO) in rats; type: in vivo, rat; details: for mortalities: deaths of animals in group; for infarct volume: Day 14 after MCAO, TTC staining, mean±SEM
[3] = following topical spray
Method: Each cohort began with single dose administration of study drug on Day 1 of the cohort's study schedule.
For single dose PK analysis, serial blood samples were collected following the Day 1 dose at the following time points: 0 (pre-dose), 0.25, 0.5, 0.75, 1, 1.5, 2, 2.5, 3, 4, 5, 6, 8, 10, 12, 18, 24, 48, 72, 96 and 120 hours post-dose. For multiple-dose PK analysis, serial blood samples were collected following the last morning dose on Day 12 according to the same schedule used for the single-dose PK analysis. In addition, daily trough PK samples were collected prior to the morning dose on Days 7 through 11.

[4] = tested on: rats, minipigs, rabbits, guinea pigs, Ames, CHO-WBL Cells; assay: Nonclinical pharmacology and toxicology battery; type: in vivo; details: battery of GLP dermal toxicity, genotoxicity, safety pharmacology, irritation and sensitization studies
Method: A battery of pharmacology and toxicology studies were conducted to support early clinical trials, including a GLP acute dermal maximum tolerated dose study in rats, a GLP acute dermal maximum tolerated dose study in minipigs, a 28-day GLP repeated dermal dose toxicity and toxicokinetics study in rats with 14-day recovery, a 28-day GLP repeated dermal dose toxicity and toxicokinetics study in minipigs with 14-day recovery, a GLP bacterial reverse mutation assay (Ames), a GLP in vitro chromosome aberration assay in CHO-WBL Cells, a GLP in vivo bone marrow micronucleus assay in rats, a behavioral effects in rats using the functional observational battery, a rat respiratory safety pharmacology study, a cardiovascular telemetry study in the unrestrained conscious minipigs, a skin irritation study in rabbits, and a sensitization test in guinea pigs.

[5] = high dose 30 mg/kg/time transdermal, twice a day
[6] = low dose 15 mg/kg/time transdermal, twice a day

In the case of `CCN(CC)CCOC(=O)c1ccccc1OC(C)=O.Cl` [Compound-1], the infarct volume [1, 5] is reported as 988 mm^3, the infarct volume [1, 6] is reported as 945 mm^3 and the Mortality rate [1, 5] is reported as 0/7. For the same molecule, the “gemistocytic astrocytes in the penumbra area” value [1, 5] was “many gemistocytic astrocytes”, the “liquefaction in the infarct area (histopathology)” value [1, 5] was “slight” and the Mortality rate [1, 6] was 0/5. The “liquefaction in the infarct area (histopathology)” value [1, 6] was “moderate”, the neurologic deficits ([1]; low dose (15 mg/kg) and high dose (30 mg/kg) groups, transdermal twice a day) was “dose-dependently improved” and the “delayed neuronal death in the distant area” value ([1]; transdermal treatment groups) was “slightly”. The mortalities ([2]; high dose 60 mg/kg topical bid) was 0 of 25, the infarct volume ([2]; low dose 15 mg/kg topical bid 14 days) was 32.07%±2.061 and the “neuroprotective effect on brain ischemic injury” value ([2]; low, middle and high dose groups compared to vehicle group) was “good neuroprotective effect”. For the same molecule, the neurological deficit scores ([2]; low, middle and high dose groups vs vehicle group) was “show differences significantly”, the body weight ([2]; low, middle and high dose groups, Day 5-14, vs vehicle group by t-test) was “increased” and the infarct volume ([2]; middle dose 30 mg/kg topical bid 14 days) was 27.11%±1.658. For the same molecule, the mortalities ([2]; middle dose 30 mg/kg topical bid) was 0 of 25, the “converted to salicylic acid” value [3] was no less than 99% and the “nonclinical safety and tolerability” value [4] was “safe and generally well tolerated”.
